The source made the active and inactive calls. No cut-off for these calls is given here.
Key:
[1] = Toxicity in patient with chronic lymphocytic leukemia and lymphoma assessed as incidence of abdominal pain at 600 mg, po qd for 21 days during phase 1 open label non-randomized trial relative to control; type: organism-based, Abdomen; settings: human, in vivo, 504 h
[2] = Toxicity in patient with chronic lymphocytic leukemia and lymphoma assessed as incidence of neutrophenia at 600 mg, po qd for 21 days co-administered with paclitaxel and carboplatin during phase 1 open label non-randomized trial relative to control; type: organism-based; settings: human, in vivo, 504 h
[3] = Toxicity in po dosed patient with chronic lymphocytic leukemia and lymphoma assessed as induction of grade 3 rash at 600 mg, po administered once daily for 21 days followed by 7 days rest; type: organism-based; settings: human, in vivo
[4] = Toxicity in patient with chronic lymphocytic leukemia and lymphoma assessed as incidence of grade more than equal 3 abdominal pain at 600 mg, po qd for 21 days co-administered with paclitaxel and carboplatin during phase 1 open label non-randomized trial relative to control; type: organism-based, Abdomen; settings: human, in vivo, 504 h
[5] = Toxicity in patient with chronic lymphocytic leukemia and lymphoma assessed as incidence of anemia at 600 mg, po qd for 21 days during phase 1 open label non-randomized trial relative to control; type: organism-based; settings: human, in vivo, 504 h
[6] = Toxicity in patient with chronic lymphocytic leukemia and lymphoma assessed as incidence of rash at 600 mg, po qd for 21 days during phase 1 open label non-randomized trial relative to control; type: organism-based; settings: human, in vivo, 504 h
Homo sapiens [7] = experiment: In vivo inhibition of PI3K in skin of po dosed solid tumor patient administered once daily; type: functional, organism-based
[8] = Toxicity in patient with chronic lymphocytic leukemia and lymphoma assessed as incidence of grade more than equal 3 anemia at 600 mg, po qd for 21 days during phase 1 open label non-randomized trial relative to control; type: organism-based; settings: human, in vivo, 504 h
[9] = Toxicity in po dosed patient with chronic lymphocytic leukemia and lymphoma assessed as induction of grade 3 hypersensitivity at 600 mg, po administered once daily for 21 days followed by 7 days rest; type: organism-based; settings: human, in vivo
[10] = Toxicity in patient with chronic lymphocytic leukemia and lymphoma assessed as incidence of grade more than equal 3 fatigue at 600 mg, po qd for 21 days during phase 1 open label non-randomized trial relative to control; type: organism-based; settings: human, in vivo, 504 h
Homo sapiens [11] = experiment: In vivo inhibition of PI3K in PBMC of po dosed solid tumor patient administered once daily; type: functional, organism-based
[12] = Toxicity in patient with chronic lymphocytic leukemia and lymphoma assessed as incidence of diarrhea at 600 mg, po qd for 21 days co-administered with paclitaxel and carboplatin during phase 1 open label non-randomized trial relative to control; type: organism-based; settings: human, in vivo, 504 h
Homo sapiens [13] = experiment: In vivo inhibition of PI3K in tumor tissue of po dosed solid tumor patient administered once daily; type: functional, organism-based
[14] = Toxicity in po dosed patient with chronic lymphocytic leukemia and lymphoma assessed as induction of grade 3 rash at 600 mg, po administered once daily for continuous 21 days; type: organism-based; settings: human, in vivo, 504 h
[15] = Toxicity in patient with chronic lymphocytic leukemia and lymphoma assessed as incidence of hyperglycemia at 600 mg, po qd for 21 days co-administered with paclitaxel and carboplatin during phase 1 open label non-randomized trial relative to control; type: organism-based; settings: human, in vivo, 504 h
[16] = Toxicity in patient with chronic lymphocytic leukemia and lymphoma assessed as incidence of grade more than equal 3 cough at 600 mg, po qd for 21 days co-administered with paclitaxel and carboplatin during phase 1 open label non-randomized trial relative to control; type: organism-based; settings: human, in vivo, 504 h
[17] = Toxicity in patient with chronic lymphocytic leukemia and lymphoma assessed as incidence of dyspnea at 600 mg, po qd for 21 days co-administered with paclitaxel and carboplatin during phase 1 open label non-randomized trial relative to control; type: organism-based; settings: human, in vivo, 504 h
[18] = Toxicity in patient with chronic lymphocytic leukemia and lymphoma assessed as incidence of cough at 600 mg, po qd for 21 days during phase 1 open label non-randomized trial relative to control; type: organism-based; settings: human, in vivo, 504 h
[19] = Toxicity in patient with chronic lymphocytic leukemia and lymphoma assessed as incidence of dyspnea at 600 mg, po qd for 21 days during phase 1 open label non-randomized trial relative to control; type: organism-based; settings: human, in vivo, 504 h
[20] = Toxicity in patient with chronic lymphocytic leukemia and lymphoma assessed as incidence of cough at 600 mg, po qd for 21 days co-administered with paclitaxel and carboplatin during phase 1 open label non-randomized trial relative to control; type: organism-based; settings: human, in vivo, 504 h
[21] = Toxicity in patient with chronic lymphocytic leukemia and lymphoma assessed as incidence of grade more than equal 3 neutrophenia at 600 mg, po qd for 21 days co-administered with paclitaxel and carboplatin during phase 1 open label non-randomized trial relative to control; type: organism-based; settings: human, in vivo, 504 h
[22] = Toxicity in patient with chronic lymphocytic leukemia and lymphoma assessed as incidence of fatigue at 600 mg, po qd for 21 days co-administered with paclitaxel and carboplatin during phase 1 open label non-randomized trial relative to control; type: organism-based; settings: human, in vivo, 504 h
[23] = Toxicity in patient with chronic lymphocytic leukemia and lymphoma assessed as incidence of grade more than equal 3 anemia at 600 mg, po qd for 21 days co-administered with paclitaxel and carboplatin during phase 1 open label non-randomized trial relative to control; type: organism-based; settings: human, in vivo, 504 h
[24] = Toxicity in patient with chronic lymphocytic leukemia and lymphoma assessed as incidence of rash at 600 mg, po qd for 21 days co-administered with paclitaxel and carboplatin during phase 1 open label non-randomized trial relative to control; type: organism-based; settings: human, in vivo, 504 h
[25] = Toxicity in patient with chronic lymphocytic leukemia and lymphoma assessed as incidence of diarrhea at 600 mg, po qd for 21 days during phase 1 open label non-randomized trial relative to control; type: organism-based; settings: human, in vivo, 504 h
[26] = Toxicity in po dosed patient with chronic lymphocytic leukemia and lymphoma assessed as induction of grade 3 hypersensitivity at 600 mg, po once daily for continuous 21 daysrest; type: organism-based; settings: human, in vivo
Homo sapiens [27] = experiment: In vivo inhibition of PI3K in hair follicle of po dosed solid tumor patient administered once daily; type: functional, organism-based
[28] = Toxicity in patient with chronic lymphocytic leukemia and lymphoma assessed as incidence of grade more than equal 3 pyrexia at 600 mg, po qd for 21 days co-administered with paclitaxel and carboplatin during phase 1 open label non-randomized trial relative to control; type: organism-based; settings: human, in vivo, 504 h
[29] = Toxicity in patient with chronic lymphocytic leukemia and lymphoma assessed as incidence of grade more than equal 3 pruritus at 600 mg, po qd for 21 days co-administered with paclitaxel and carboplatin during phase 1 open label non-randomized trial relative to control; type: organism-based; settings: human, in vivo, 504 h
[30] = Toxicity in patient with chronic lymphocytic leukemia and lymphoma assessed as incidence of grade more than equal 3 fatigue at 600 mg, po qd for 21 days co-administered with paclitaxel and carboplatin during phase 1 open label non-randomized trial relative to control; type: organism-based; settings: human, in vivo, 504 h
[31] = Toxicity in patient with chronic lymphocytic leukemia and lymphoma assessed as incidence of grade more than equal 3 dyspnea at 600 mg, po qd for 21 days co-administered with paclitaxel and carboplatin during phase 1 open label non-randomized trial relative to control; type: organism-based; settings: human, in vivo, 504 h
[32] = Toxicity in patient with chronic lymphocytic leukemia and lymphoma assessed as incidence of pruritus at 600 mg, po qd for 21 days during phase 1 open label non-randomized trial relative to control; type: organism-based; settings: human, in vivo, 504 h
[33] = Toxicity in patient with chronic lymphocytic leukemia and lymphoma assessed as incidence of hyperglycemia at 600 mg, po qd for 21 days during phase 1 open label non-randomized trial relative to control; type: organism-based; settings: human, in vivo, 504 h

Q: For `COc1ccc(Cl)c(Nc2nc3ccccc3nc2NS(=O)(=O)c2cccc(NC(=O)C(C)(C)N)c2)c1` [PILARALISIB], which Activity [1] is on record?
A: Its Activity is 4%.

Q: What about the Activity [2] of the same compound?
A: The Activity was 4%.

Q: What about the Activity [3] of the same compound?
A: Its Activity is “Toxic”.

Q: And the Activity [4]?
A: Its Activity is 0%.

Q: What about the Activity [5] of the same compound?
A: The Activity was 4%.

Q: And the Activity [6]?
A: The Activity was 4%.

Q: What about the inhibition (Homo sapiens [7]) of the same compound?
A: Its inhibition is “Active”.

Q: And the Activity [8]?
A: The Activity was 3%.

Q: What about the Activity [9] of the same compound?
A: Its Activity is “Toxic”.

Q: What about the Activity [10] of the same compound?
A: The Activity was 0%.

Q: What about the inhibition (Homo sapiens [11]) of the same compound?
A: The inhibition was “Active”.

Q: And the Activity [12]?
A: The Activity was 7%.

Q: What about the inhibition (Homo sapiens [13]) of the same compound?
A: Its inhibition is “Active”.

Q: And the Activity [14]?
A: The Activity was “Toxic”.

Q: What about the Activity [15] of the same compound?
A: Its Activity is 4%.

Q: And the Activity [16]?
A: The Activity was 0%.

Q: And the Activity [17]?
A: The Activity was 0%.

Q: And the Activity [18]?
A: Its Activity is 6%.

Q: And the Activity [19]?
A: Its Activity is 4%.

Q: What about the Activity [20] of the same compound?
A: Its Activity is 0%.

Q: And the Activity [21]?
A: The Activity was 4%.

Q: And the Activity [22]?
A: The Activity was 0%.

Q: And the Activity [23]?
A: The Activity was 0%.

Q: What about the Activity [24] of the same compound?
A: The Activity was 3%.

Q: And the Activity [25]?
A: Its Activity is 12%.

Q: What about the Activity [26] of the same compound?
A: Its Activity is “Toxic”.

Q: And the inhibition (Homo sapiens [27])?
A: Its inhibition is “Active”.

Q: And the Activity [28]?
A: Its Activity is 0%.

Q: What about the Activity [29] of the same compound?
A: Its Activity is 0%.

Q: And the Activity [30]?
A: Its Activity is 0%.

Q: What about the Activity [31] of the same compound?
A: Its Activity is 0%.

Q: What about the Activity [32] of the same compound?
A: The Activity was 4%.

Q: What about the Activity [33] of the same compound?
A: Its Activity is 4%.

Reference: ChEMBL document CHEMBL3882389, “Phosphatidylinositol 3-Kinase Inhibitors for the Treatment of Lymphoproliferative Malignancies” (2014)
